Earlier results as cited in US20170068777A1, “METHODS OF IDENTIFYING AND F[…] COMPOUNDS THAT MODULATE PHENOTYPE-RELATED TARGETS” (Tufts University, priority 2015, published 2017).

Settings: shown experimentally in the literature

SMILES | effect on TG levels
CC1(C(=O)O)CCC2(C)CCC3(C)C(=CCC4C5(C)CCC(O)C(C)(CO)C5CCC43C)C2C1 (centres unmarked) [Azukisapogenol] | lower TG levels
CC1(C)[C@@H](O)CC[C@]2(C)[C@H]3C(=O)C=C4[C@@H]5C[C@@](C)(C(=O)O)CC[C@]5(C)CC[C@@]4(C)[C@]3(C)CC[C@@H]12 [Glycyrrhetic acid] | lower TG levels
